This assay concerns HIV-1 (H9/IIIB strain) virus. The assay is described as follows: microbe, parasite or virus in culture. The assay is classed as cell-based. The settings on record: MT4-GFP cells infected with HIV-1 H9/IIIB, inhibition of reproductive ratio.
Setting [1] is: 0% NHS condition (RPMI 1640), read-out: Viking, IC50 (0% NHS).
Setting [2] is: 100% normal human serum (NHS) condition, read-out: Viking, IC50 (100% NHS).
Where [3] appears, read: Human immunodeficiency virus 1, IIIB, 0% NHS condition (RPMI 1640), read-out: Viking, IC50 (0% NHS).

Each structure is given as a SMILES string. Where two headings read alike, the source gives them in different places.

By IC50 is commonly meant the concentration that gives 50% inhibition. As for `O=C(NCc1c(F)cc(F)cc1F)c1cn2c(c(O)c1=O)C(=O)N1CCC(O)CCN2C1` (single isomer, unassigned) [Example 17B], the IC50 under setting [1] turned out to be 7.6 nM and the IC50 under setting [2] turned out to be 275 nM.

As for `COC1CCN2CN(CC1)n1cc(C(=O)NCc3c(F)cccc3F)c(=O)c(O)c1C2=O` (single isomer, unassigned) [Example 22C], the IC50 was found to be 2 nM under setting [1] and 88 nM under setting [2].

For the molecule `O=C(NCc1c(F)ccc(Cl)c1F)c1cn2c(c(O)c1=O)C(=O)N1CCOCCN2C1` [Example 16B], the IC50 was determined as 1.2 nM under setting [1] and 247 nM under setting [2].

Regarding `O=C(NCc1c(F)cc(F)cc1F)c1cn2c(c(O)c1=O)C(=O)N1CCOCCN2C1` [Example 14B], the concentration for half-maximal inhibition (IC50) was 1.66 nM under setting [1] and 157 nM under setting [2].

In the case of `COC1CCN2CN(CC1)n1cc(C(=O)NCc3cccc(Cl)c3F)c(=O)c(O)c1C2=O` (single isomer, unassigned) [Example 18C], the IC50 by setting is: under setting [1], 3.2 nM; under setting [2], 1870 nM.

On to `CN1CCN2CN(CC1)n1cc(C(=O)NCc3cccc(Cl)c3F)c(=O)c(O)c1C2=O` [Example 24B], for which the half-maximal inhibitory concentration (IC50) amounted to 3.5 nM under setting [1] and 485 nM under setting [2].

In the case of `O=C(NCc1c(F)cc(F)cc1F)c1cn2c(c(O)c1=O)C(=O)N1CCCCCN2C1` (single isomer, unassigned) [Example 1A, 9-hydroxy-8,10-dioxo-N-(2,4,6-trifluorobenzyl)-3,4,5,6,8,10-hexahydro-2H-1,7-methanopyrido[1,2-b][1,2,5]triazecine-11-carboxamide], the IC50 is 2560 nM under setting [2] and 1.98 nM under setting [3].

Consider `COC1CCN2CN(CC1)n1cc(C(=O)NCc3cccc(F)c3F)c(=O)c(O)c1C2=O` (single isomer, unassigned) [Example 23B], for which the 50% inhibitory concentration (IC50) turned out to be 2.1 nM under setting [1] and 314 nM under setting [2].

In the case of `COC1CCN2CN(CC1)n1cc(C(=O)NCc3c(F)cccc3F)c(=O)c(O)c1C2=O` (single isomer, unassigned) [Example 22B], the IC50 reads like this: under setting [1], 1.6 nM; under setting [2], 161 nM.

For `O=C(NCc1cccc(Cl)c1F)c1cn2c(c(O)c1=O)C(=O)N1CCOCCN2C1` [Example 13A], the IC50 was 2.74 nM under setting [1] and 3360 nM under setting [2].

`CN1CCN2CN(CC1)n1cc(C(=O)NCc3cccc(Cl)c3F)c(=O)c(O)c1C2=O` [Example 24A]: the IC50 is, setting by setting: under setting [1], 5.1 nM; under setting [2], 665 nM.

For `COC1CCN2CN(CC1)n1cc(C(=O)NCc3c(F)ccc(Cl)c3F)c(=O)c(O)c1C2=O` (single isomer, unassigned) [Example 19B], the concentration for half-maximal inhibition (IC50) under setting [1] amounted to 5.3 nM and the IC50 under setting [2] was 1880 nM.

Turning to `O=C(NCc1ccc(F)c(Cl)c1F)c1cn2c(c(O)c1=O)C(=O)N1CCOCCN2C1` [Example 15B], the IC50 is 1.61 nM under setting [1] and 224 nM under setting [2].

`CN1CCN2CN(CC1)n1cc(C(=O)NCc3c(F)ccc(Cl)c3F)c(=O)c(O)c1C2=O` [Example 25B]: the IC50 runs as follows: under setting [1], 2.1 nM; under setting [2], 139 nM.

With `O=C(NCc1cccc(Cl)c1F)c1cn2c(c(O)c1=O)C(=O)N1CCCCCN2C1` [Example 9B], the IC50 reads like this: under setting [1], 1.15 nM; under setting [2], 196 nM.

Regarding `O=C(NCc1c(F)cc(F)cc1F)c1cn2c(c(O)c1=O)C(=O)N1CCOCCN2C1` [Example 14A], the 50% inhibitory concentration (IC50) under setting [1] was 5.4 nM and the 50% inhibitory concentration (IC50) under setting [2] turned out to be 4210 nM.

Turning to `COC1CCN2CN(CC1)n1cc(C(=O)NCc3c(F)cccc3F)c(=O)c(O)c1C2=O` (single isomer, unassigned) [Example 22D], the 50% inhibitory concentration (IC50) by setting is: under setting [1], 1.4 nM; under setting [2], 311 nM.

Take `O=C(NCc1c(F)cc(F)cc1F)c1cn2c(c(O)c1=O)C(=O)N1CCC(O)CCN2C1` (single isomer, unassigned) [Example 17C]: the concentration for half-maximal inhibition (IC50) reads like this: under setting [1], 184 nM; under setting [2], 5920 nM.

As for `O=C(NCc1c(F)ccc(Cl)c1F)c1cn2c(c(O)c1=O)C(=O)N1CCOCCN2C1` [Example 16A], the 50% inhibitory concentration (IC50) by setting is: under setting [1], 2.7 nM; under setting [2], 12300 nM.

`COC1CCN2CN(CC1)n1cc(C(=O)NCc3ccc(F)cc3F)c(=O)c(O)c1C2=O` (single isomer, unassigned) [Example 20B]: the half-inhibitory concentration (IC50) is 2.8 nM under setting [1] and 371 nM under setting [2].

As for `O=C(NCc1c(F)cc(F)cc1F)c1cn2c(c(O)c1=O)C(=O)N1CCC(F)(F)CCN2C1` (single isomer, unassigned) [Example 7A, 4,4-difluoro-9-hydroxy-8,10-dioxo-N-(2,4,6-trifluorobenzyl)-3,4,5,6,8,10-hexahydro-2H-1,7-methanopyrido[1,2-b][1,2,5]triazecine-11-carboxamide], the half-inhibitory concentration (IC50) under setting [1] is 6.1 nM and the 50% inhibitory concentration (IC50) under setting [2] was found to be 4460 nM.

Consider `COC1CCN2CN(CC1)n1cc(C(=O)NCc3cccc(Cl)c3F)c(=O)c(O)c1C2=O` (single isomer, unassigned) [Example 18D], for which the IC50 is 1.5 nM under setting [1] and 230 nM under setting [2].

As to `COC1CCN2CN(CC1)n1cc(C(=O)NCc3ccc(F)c(Cl)c3F)c(=O)c(O)c1C2=O` (single isomer, unassigned) [Example 21D], the IC50 reads like this: under setting [1], 2 nM; under setting [2], 472 nM.

For the molecule `COC1CCN2CN(CC1)n1cc(C(=O)NCc3ccc(F)c(Cl)c3F)c(=O)c(O)c1C2=O` (single isomer, unassigned) [Example 21C], the concentration for half-maximal inhibition (IC50) is 1.7 nM under setting [1] and 311 nM under setting [2].

For the molecule `O=C(NCc1cccc(Cl)c1F)c1cn2c(c(O)c1=O)C(=O)N1CCOCCN2C1` [Example 13B], the IC50 was determined as 2.19 nM under setting [1] and 146 nM under setting [2].

Consider `O=C(NCc1ccc(F)c(Cl)c1F)c1cn2c(c(O)c1=O)C(=O)N1CCOCCN2C1` [Example 15A], for which the IC50 runs as follows: under setting [1], 3.7 nM; under setting [2], 10700 nM.

As for `COC1CCN2CN(CC1)n1cc(C(=O)NCc3ccc(F)c(Cl)c3F)c(=O)c(O)c1C2=O` (single isomer, unassigned) [Example 21A], the IC50 runs as follows: under setting [1], 2.5 nM; under setting [2], 2520 nM.

In the case of `COC1CCN2CN(CC1)n1cc(C(=O)NCc3cccc(Cl)c3F)c(=O)c(O)c1C2=O` (single isomer, unassigned) [Example 18B], the IC50 runs as follows: under setting [1], 2.5 nM; under setting [2], 435 nM.

For the molecule `O=C(NCc1ccc(F)cc1F)c1cn2c(c(O)c1=O)C(=O)N1CCOCCN2C1` (single isomer, unassigned) [Example 4A, N-(2,4-difluorobenzyl)-9-hydroxy-8,10-dioxo-2,3,5,6,8,10-hexahydro-1,7-methanopyrido[1,2-e][1,4,5,8]oxatriazecine-11-carboxamide], the IC50 under setting [1] was 3.45 nM and the IC50 under setting [2] stood at 9520 nM.

With `COC1CCN2CN(CC1)n1cc(C(=O)NCc3ccc(F)c(Cl)c3F)c(=O)c(O)c1C2=O` (single isomer, unassigned) [Example 21B], the IC50 turned out to be 0.9 nM under setting [1] and 207 nM under setting [2].

For `O=C(NCc1c(F)cc(F)cc1F)c1cn2c(c(O)c1=O)C(=O)N1CCCCCN2C1` (single isomer, unassigned) [Example 1B, 9-hydroxy-8,10-dioxo-N-(2,4,6-trifluorobenzyl)-3,4,5,6,8,10-hexahydro-2H-1,7-methanopyrido[1,2-b][1,2,5]triazecine-11-carboxamide], the half-maximal inhibitory concentration (IC50) runs as follows: under setting [1], 1 nM; under setting [2], 94.7 nM.

As to `O=C(NCc1c(F)ccc(Cl)c1F)c1cn2c(c(O)c1=O)C(=O)N1CCCCCN2C1` [Example 11A], the half-inhibitory concentration (IC50) under setting [1] came out at 3.45 nM and the half-maximal inhibitory concentration (IC50) under setting [2] was determined as 12500 nM.

For `COC1CCN2CN(CC1)n1cc(C(=O)NCc3c(F)ccc(Cl)c3F)c(=O)c(O)c1C2=O` (single isomer, unassigned) [Example 19A], the half-maximal inhibitory concentration (IC50) is, setting by setting: under setting [1], 1.8 nM; under setting [2], 116 nM.

Consider `COC1CCN2CN(CC1)n1cc(C(=O)NCc3cccc(F)c3F)c(=O)c(O)c1C2=O` (single isomer, unassigned) [Example 23D], for which the IC50 is, setting by setting: under setting [1], 1.9 nM; under setting [2], 567 nM.

As to `COC1CCN2CN(CC1)n1cc(C(=O)NCc3c(F)ccc(Cl)c3F)c(=O)c(O)c1C2=O` (single isomer, unassigned) [Example 19D], the 50% inhibitory concentration (IC50) by setting is: under setting [1], 1.5 nM; under setting [2], 300 nM.

As for `COC1CCN2CN(CC1)n1cc(C(=O)NCc3c(F)cc(F)cc3F)c(=O)c(O)c1C2=O` (single isomer, unassigned) [Example 5D, 9-hydroxy-4-methoxy-8,10-dioxo-N-(2,4,6-trifluorobenzyl)-3,4,5,6,8,10-hexahydro-2H-1,7-methanopyrido[1,2-b][1,2,5]triazecine-11-carboxamide], the IC50 under setting [1] was 5.32 nM and the half-maximal inhibitory concentration (IC50) under setting [2] was 544 nM.

Consider `COC1CCN2CN(CC1)n1cc(C(=O)NCc3cccc(F)c3F)c(=O)c(O)c1C2=O` (single isomer, unassigned) [Example 23C], for which the half-inhibitory concentration (IC50) by setting is: under setting [1], 4.3 nM; under setting [2], 83 nM.

As to `O=C(NCc1c(F)ccc(Cl)c1F)c1cn2c(c(O)c1=O)C(=O)N1CCCCCN2C1` [Example 11B], the IC50 runs as follows: under setting [1], 2.09 nM; under setting [2], 358 nM.

Regarding `O=C(NCc1ccc(F)cc1F)c1cn2c(c(O)c1=O)C(=O)N1CCCCCCN2C1` (single isomer, unassigned) [Example 3A, N-(2,4-difluorobenzyl)-10-hydroxy-9,11-dioxo-2,3,4,5,6,7,9,11-octahydro-1,8-methanopyrido[1,2-b][1,2,5]triazacycloundecine-12-carboxamide], the IC50 is 589 nM under setting [2] and 2.66 nM under setting [3].

`COC1CCN2CN(CC1)n1cc(C(=O)NCc3ccc(F)cc3F)c(=O)c(O)c1C2=O` (single isomer, unassigned) [Example 20D]: the IC50 is, setting by setting: under setting [1], 2.1 nM; under setting [2], 212 nM.

`O=C(NCc1ccc(F)c(Cl)c1F)c1cn2c(c(O)c1=O)C(=O)N1CCCCCN2C1` [Example 10A]: the IC50 reads like this: under setting [1], 1.89 nM; under setting [2], 8580 nM.

Source of the values: patent publication US11413292B2, “Tricyclic heterocycle compounds useful as HIV integrase inhibitors” (Merck Sharp & Dohme Corp., priority 2018, dated 2022).
